# Results: patent publication US12156862B2, “Medicaments for the treatment of vasoconstriction related diseases or disorders” (Sulfateq B.V., priority 2017, dated 2024)
# Molecular target: T1, human α1 adrenoceptor subtype A (Homo sapiens, UniProt P35348)
# T1 construct: expressed in transfected cells; host or cells: CHO-K1
# T1 sequence (P35348 1-466): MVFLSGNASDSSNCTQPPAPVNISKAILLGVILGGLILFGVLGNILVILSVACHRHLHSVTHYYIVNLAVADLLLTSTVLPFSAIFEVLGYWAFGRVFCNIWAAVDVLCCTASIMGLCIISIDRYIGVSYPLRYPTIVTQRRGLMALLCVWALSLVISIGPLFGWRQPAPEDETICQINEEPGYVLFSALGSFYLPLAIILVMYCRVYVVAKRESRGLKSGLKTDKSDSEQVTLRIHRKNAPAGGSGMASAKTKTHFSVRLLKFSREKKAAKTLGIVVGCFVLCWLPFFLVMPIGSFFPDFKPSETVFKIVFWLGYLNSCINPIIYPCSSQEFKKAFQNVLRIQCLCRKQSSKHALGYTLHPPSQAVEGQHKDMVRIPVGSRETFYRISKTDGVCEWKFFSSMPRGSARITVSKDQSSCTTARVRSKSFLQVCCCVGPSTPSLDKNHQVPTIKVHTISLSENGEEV
# Assay: Phenylephrine-induced intracellular calcium (FLIPR Calcium 6) in CHO cells, α1A
# Format: cell-based
# Protocol: CHO-K1 cells were stably transfected with a plasmid containing human al-AR subtypes A, B and D in separate cell lines in DMEM-F12 medium with 10% FBS, 1% penicillin-streptomycin and 200 μg/mL Geneticin (G418, Invitrogen, Carlsbad, CA).
# On the next day, CHO cells were treated with either vehicle (0.1% DMSO) or SUL-121 enantiomers for 30 min at 37° C. and stimulated with a 3-fold dilution series of PE (20 μM-100 pM). [Ca^2], was measured using the fluorescent FLIPR Calcium 6 assay kit (Molecular Devices) in immortalized CHO cells stably expressing the α1 adrenoceptor.
# Initially, calcium responses induced by non-cumulative concentration series of phenylephrine were investigated using fluorescent measurements in α1A adrenoceptor-overexpressing CHO cells treated with SUL-150 and SUL-151 (FIG. 4). Fluorescent measurement data was processed and analyzed in SoftMax Pro 7 and expressed as % of baseline AUC with a 3-fold multiplier using an average of first 10 measurement points as baseline.
smiles,measurement,setting,value
"Cc1c(C)c2c(c(C)c1O)CC[C@](C)(C(=O)N1CCNCC1)O2 [SUL-150, (R)(6-hydroxy-2,5,7,8-tetramethylchroman-2-yl)(piperazin-1-yl)methanone]","logEC50 of phenylephrine-induced calcium influx, α1A",10 μM test compound,−7.62 ± 0.03
same,"logEC50 of phenylephrine-induced calcium influx, α1A",30 μM test compound,−7.28 ± 0.03
same,"logEC50 of phenylephrine-induced calcium influx, α1A",100 μM test compound,−6.88 ± 0.03
same,"effect on PE-induced calcium transients, α1 adrenoceptor subtype A",in words,shifted dose response curves rightwards
